In patent US20250346569A1, “NEW DERIVATIVES FOR TREATING TRPM3 MEDIATED DISORDERS” (Katholieke Universiteit Leuven, priority 2022, published 2025):
pIC50: −log10 of the molar value.

Tests used:
[1] = rat pain model; cited from earlier work
[2] = target: T1, mouse TRPM3α2 (mTRPM3) ion channel (Mus musculus, UniProt J9SQF3); experiment: Monitoring the TRPM3 ion channel driven Ca2+ uptake (Fluo-4 AM assay); type: cell-based; details: TRPM3 overexpressing flip-in HEK293 cells, channel stimulated with Pregnenolone sulfate (PS) 50 μM
T1 construct: expressed in transfected cells; host or cells: flip-in HEK293
T1 sequence (J9SQF3 1-1709 isoform J9SQF3-12): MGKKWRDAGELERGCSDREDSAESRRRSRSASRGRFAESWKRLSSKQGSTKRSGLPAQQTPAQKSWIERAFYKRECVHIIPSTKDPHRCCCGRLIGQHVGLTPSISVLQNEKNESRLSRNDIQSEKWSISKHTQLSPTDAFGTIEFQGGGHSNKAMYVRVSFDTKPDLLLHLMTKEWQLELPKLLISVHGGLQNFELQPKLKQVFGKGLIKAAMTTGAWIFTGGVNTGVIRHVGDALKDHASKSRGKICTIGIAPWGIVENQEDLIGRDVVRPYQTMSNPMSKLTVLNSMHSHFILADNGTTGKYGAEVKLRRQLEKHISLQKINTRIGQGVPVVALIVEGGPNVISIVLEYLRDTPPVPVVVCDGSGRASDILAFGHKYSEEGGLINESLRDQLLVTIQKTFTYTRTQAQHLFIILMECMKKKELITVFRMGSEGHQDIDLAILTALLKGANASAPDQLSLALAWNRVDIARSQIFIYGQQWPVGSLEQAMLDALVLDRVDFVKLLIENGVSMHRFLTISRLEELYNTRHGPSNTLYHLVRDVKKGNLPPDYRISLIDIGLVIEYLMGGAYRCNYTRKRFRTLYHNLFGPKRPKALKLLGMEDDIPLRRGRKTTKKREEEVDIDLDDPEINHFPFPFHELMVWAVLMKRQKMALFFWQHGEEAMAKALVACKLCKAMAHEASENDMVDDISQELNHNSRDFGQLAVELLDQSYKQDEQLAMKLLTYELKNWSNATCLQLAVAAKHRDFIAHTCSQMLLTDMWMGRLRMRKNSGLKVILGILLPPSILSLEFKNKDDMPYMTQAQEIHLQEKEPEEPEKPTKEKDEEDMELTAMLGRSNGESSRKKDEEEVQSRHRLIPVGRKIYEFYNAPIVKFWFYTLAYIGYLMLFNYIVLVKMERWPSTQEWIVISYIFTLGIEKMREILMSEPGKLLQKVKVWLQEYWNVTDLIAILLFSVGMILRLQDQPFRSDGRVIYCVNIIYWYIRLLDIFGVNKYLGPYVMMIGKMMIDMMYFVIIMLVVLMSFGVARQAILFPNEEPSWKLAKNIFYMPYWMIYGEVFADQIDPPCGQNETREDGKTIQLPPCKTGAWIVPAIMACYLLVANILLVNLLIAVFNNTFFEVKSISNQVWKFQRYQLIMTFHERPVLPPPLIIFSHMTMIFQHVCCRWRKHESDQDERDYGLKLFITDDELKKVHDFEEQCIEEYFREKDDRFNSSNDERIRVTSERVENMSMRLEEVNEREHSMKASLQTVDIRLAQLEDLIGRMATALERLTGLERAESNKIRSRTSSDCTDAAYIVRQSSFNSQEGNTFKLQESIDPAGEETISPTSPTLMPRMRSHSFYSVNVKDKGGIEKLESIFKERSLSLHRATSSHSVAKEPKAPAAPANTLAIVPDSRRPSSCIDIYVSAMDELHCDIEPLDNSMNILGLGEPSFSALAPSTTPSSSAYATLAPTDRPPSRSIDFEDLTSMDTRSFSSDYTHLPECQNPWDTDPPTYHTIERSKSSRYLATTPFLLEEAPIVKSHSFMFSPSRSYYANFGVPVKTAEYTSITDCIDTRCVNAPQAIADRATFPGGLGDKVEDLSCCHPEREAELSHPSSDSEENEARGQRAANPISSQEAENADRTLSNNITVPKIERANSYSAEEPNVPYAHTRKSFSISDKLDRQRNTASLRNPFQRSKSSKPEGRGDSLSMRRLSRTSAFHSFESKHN
In short: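 Flp-In HEK293 cells overexpressing mTRPM3α2, loaded with Fluo-4 AM and added to wells holding compound plus 50 μM pregnenolone sulfate in Ca2+-containing Krebs buffer. Fluorescence (ex 485/em 535) read right after cell addition. Inhibition normalised to vehicle and positive-control inhibitor; IC50 derived.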

[3] = tested on: TRPM3; details: wild type mice vs knock-out TRPM3 mice; cited from earlier work

Compound	pIC50 [2]	further results
O=C1C[C@@H](c2ccc(O)cc2)Oc2cc(O)ccc21 [Liquiritigenin]		mechanical and cold hyperalgesia [1]: decrease mechanical and cold hyperalgesia
CC(C)(CNC(=O)c1c(C(F)F)sc2ccc(OCc3ccccc3)cc12)N1CCOCC1 [Cpd 013, 5-(benzyloxy)-2-(difluoromethyl)-N-[2-methyl-2-(morpholin-4-yl)propyl]-1-benzothiophene-3-carboxamide]	4.70 to 6.00	
Cc1sc2ccc(OCc3cccnc3C(F)(F)F)cc2c1C(=O)N[C@H](C)C(N)=O [Cpd 004, (2R)-2-[(2-methyl-5-{[2-(trifluoromethyl)pyridin-3-yl]methoxy}-1-benzothiophen-3-yl)formamido]propanamide]	> 6.00	
Cc1sc2ccc(OCc3cccnc3C(F)(F)F)cc2c1C(=O)NC1(CO)CCOCC1 [Cpd 083, N-[4-(hydroxymethyl)oxan-4-yl]-2-methyl-5-{[2-(trifluoromethyl)pyridin-3-yl]methoxy}-1-benzothiophene-3-carboxamide]	4.70 to 6.00	
Cc1ncsc1COc1ccc2sc(C)c(C(=O)NC3CCNCC3(F)F)c2c1 (single isomer, unassigned) [Cpd 042 - En1, N-(3,3-difluoropiperidin-4-yl)-2-methyl-5-[(4-methyl-1,3-thiazol-5-yl)methoxy]-1-benzothiophene-3-carboxamide]	> 6.00	
Cc1ncsc1COc1ccc2sc(C)c(C(=O)Nc3ccn(C)n3)c2c1 [Cpd 040, 2-methyl-5-[(4-methyl-1,3-thiazol-5-yl)methoxy]-N-(1-methyl-1H-pyrazol-3-yl)-1-benzothiophene-3-carboxamide]	> 6.00	
pregnenolone sulfate		pain [3]: evoked pain in wild type mice but not in knock-out TRPM3 mice
Cc1sc2ccc(OCc3ccccc3)cc2c1C(=O)N[C@H]1CCNC1=O [Cpd 060, 5-(benzyloxy)-2-methyl-N-[(3S)-2-oxopyrrolidin-3-yl]-1-benzothiophene-3-carboxamide]	> 6.00	
Cc1ncsc1COc1ccc2sc(C)c(C(=O)NC3CCNCC3(F)F)c2c1 (single isomer, unassigned) [Cpd 042 - En2, N-(3,3-difluoropiperidin-4-yl)-2-methyl-5-[(4-methyl-1,3-thiazol-5-yl)methoxy]-1-benzothiophene-3-carboxamide]	> 6.00	
Cc1sc2ccc(OCc3cccnc3C(F)(F)F)cc2c1C(=O)O [Cpd 109, 2-methyl-5-{[2-(trifluoromethyl)pyridin-3-yl]methoxy}-1-benzothiophene-3-carboxylic acid]	> 6.00	
Cc1ncc(COc2ccc3sc(C)c(C(=O)N[C@@H](C)C(N)=O)c3c2)s1 [Cpd 011, (2S)-2-({2-methyl-5-[(2-methyl-1,3-thiazol-5-yl)methoxy]-1-benzothiophen-3-yl}formamido)propanamide]	> 6.00	
Cc1sc2ccc(OCc3ccccc3)cc2c1C(=O)N[C@H](C)C(N)=O [Cpd 001, (2R)-2-{[5-(benzyloxy)-2-methyl-1-benzothiophen-3-yl]formamido}propanamide]	> 6.00	
Cc1sc2ccc(OCc3cccnc3C(F)(F)F)cc2c1C(=O)NCC(C)(C)O [Cpd 101, N-(2-hydroxy-2-methylpropyl)-2-methyl-5-{[2-(trifluoromethyl)pyridin-3-yl]methoxy}-1-benzothiophene-3-carboxamide]	> 6.00	
Cc1ncsc1COc1ccc2sc(C)c(C(=O)NCC(C)(C)O)c2c1 [Cpd 045, N-(2-hydroxy-2-methylpropyl)-2-methyl-5-[(4-methyl-1,3-thiazol-5-yl)methoxy]-1-benzothiophene-3-carboxamide]	> 6.00	
Cc1sc2ccc(OCc3ccccn3)cc2c1C(=O)N[C@H](C)C(N)=O [Cpd 003, (2R)-2-({2-methyl-5-[(pyridin-2-yl)methoxy]-1-benzothiophen-3-yl}formamido)propanamide]	> 6.00	
Cc1ncsc1COc1ccc2sc(C)c(C(=O)N[C@H](C)C(N)=O)c2c1 [Cpd 006, (2R)-2-({2-methyl-5-[(4-methyl-1,3-thiazol-5-yl)methoxy]-1-benzothiophen-3-yl}formamido)propanamide]	> 6.00	
CN(C)C1(CNC(=O)c2c(C(F)F)sc3ccc(OCc4ccccc4)cc23)CCCC1 [Cpd 112, 5-(benzyloxy)-2-(difluoromethyl)-N-{[1-(dimethylamino)cyclopentyl]methyl}-1-benzothiophene-3-carboxamide]	4.70 to 6.00	
CNC(=O)C(C)(CO)NC(=O)c1c(C)sc2ccc(OCc3cnc(C)s3)cc12 (single isomer, unassigned) [Cpd 132 - En1, 3-hydroxy-N,2-dimethyl-2-({2-methyl-5-[(2-methyl-1,3-thiazol-5-yl)methoxy]-1-benzothiophen-3-yl}formamido)propanamide]	> 6.00	
CN1CCC(NC(=O)c2c(C(F)F)sc3ccc(OCc4ccccc4)cc23)CC1 [Cpd 128, 5-(benzyloxy)-2-(difluoromethyl)-N-(1-methylpiperidin-4-yl)-1-benzothiophene-3-carboxamide]	4.70 to 6.00	

Second part, led by results:

pIC50 [2]	Compound	further results
4.70 to 6.00	Cc1sc2ccc(OCc3ccccc3)cc2c1C(=O)NC1(CO)CCOCC1 [Cpd 080, 5-(benzyloxy)-N-[4-(hydroxymethyl)oxan-4-yl]-2-methyl-1-benzothiophene-3-carboxamide]	
4.70 to 6.00	COc1ncccc1COc1ccc2sc(C)c(C(=O)NC3(CO)CCOCC3)c2c1 [Cpd 144, N-[4-(hydroxymethyl)oxan-4-yl]-5-[(2-methoxypyridin-3-yl)methoxy]-2-methyl-1-benzothiophene-3-carboxamide]	
> 6.00	Cc1sc2ccc(OCc3ccccc3F)cc2c1C(=O)N[C@H](C)C(N)=O [Cpd 002, (2R)-2-({5-[(2-fluorophenyl)methoxy]-2-methyl-1-benzothiophen-3-yl}formamido)propanamide]	
> 6.00	Cc1sc2ccc(OCc3ccccn3)cc2c1C(=O)NC1(C(N)=O)COC1 [Cpd 088, 3-{2-methyl-5-[(pyridin-2-yl)methoxy]-1-benzothiophene-3-amido}oxetane-3-carboxamide]	
< 4.70	Cc1sc2ccc(OCc3cccnc3O)cc2c1C(=O)NC1(C(=O)O)CCOCC1 [Cpd 072, 4-{5-[(2-hydroxypyridin-3-yl)methoxy]-2-methyl-1-benzothiophene-3-amido}oxane-4-carboxylic acid]	
> 6.00	Cc1sc2ccc(OCc3ccccc3F)cc2c1C(=O)N[C@H](CO)C(N)=O [Cpd 056, (2R)-2-({5-[(2-fluorophenyl)methoxy]-2-methyl-1-benzothiophen-3-yl}formamido)-3-hydroxypropanamide]	
> 6.00	Cc1sc2ccc(OCc3ccccc3F)cc2c1C(=O)NC1(C(N)=O)CCOCC1 [Cpd 070, 4-{5-[(2-fluorophenyl)methoxy]-2-methyl-1-benzothiophene-3-amido}oxane-4-carboxamide]	
> 6.00	Cc1sc2ccc(OCc3cccnc3O)cc2c1C(=O)NC1(CO)CCOCC1 [Cpd 084, N-[4-(hydroxymethyl)oxan-4-yl]-5-[(2-hydroxypyridin-3-yl)methoxy]-2-methyl-1-benzothiophene-3-carboxamide]	
